Type in all cases: cell-based
One test deals with T1, human TLR7 (Homo sapiens, UniProt Q9NYK1).
T1 construct: expressed in transfected cells; host or cells: HEK293
T1 sequence (Q9NYK1 27-1049): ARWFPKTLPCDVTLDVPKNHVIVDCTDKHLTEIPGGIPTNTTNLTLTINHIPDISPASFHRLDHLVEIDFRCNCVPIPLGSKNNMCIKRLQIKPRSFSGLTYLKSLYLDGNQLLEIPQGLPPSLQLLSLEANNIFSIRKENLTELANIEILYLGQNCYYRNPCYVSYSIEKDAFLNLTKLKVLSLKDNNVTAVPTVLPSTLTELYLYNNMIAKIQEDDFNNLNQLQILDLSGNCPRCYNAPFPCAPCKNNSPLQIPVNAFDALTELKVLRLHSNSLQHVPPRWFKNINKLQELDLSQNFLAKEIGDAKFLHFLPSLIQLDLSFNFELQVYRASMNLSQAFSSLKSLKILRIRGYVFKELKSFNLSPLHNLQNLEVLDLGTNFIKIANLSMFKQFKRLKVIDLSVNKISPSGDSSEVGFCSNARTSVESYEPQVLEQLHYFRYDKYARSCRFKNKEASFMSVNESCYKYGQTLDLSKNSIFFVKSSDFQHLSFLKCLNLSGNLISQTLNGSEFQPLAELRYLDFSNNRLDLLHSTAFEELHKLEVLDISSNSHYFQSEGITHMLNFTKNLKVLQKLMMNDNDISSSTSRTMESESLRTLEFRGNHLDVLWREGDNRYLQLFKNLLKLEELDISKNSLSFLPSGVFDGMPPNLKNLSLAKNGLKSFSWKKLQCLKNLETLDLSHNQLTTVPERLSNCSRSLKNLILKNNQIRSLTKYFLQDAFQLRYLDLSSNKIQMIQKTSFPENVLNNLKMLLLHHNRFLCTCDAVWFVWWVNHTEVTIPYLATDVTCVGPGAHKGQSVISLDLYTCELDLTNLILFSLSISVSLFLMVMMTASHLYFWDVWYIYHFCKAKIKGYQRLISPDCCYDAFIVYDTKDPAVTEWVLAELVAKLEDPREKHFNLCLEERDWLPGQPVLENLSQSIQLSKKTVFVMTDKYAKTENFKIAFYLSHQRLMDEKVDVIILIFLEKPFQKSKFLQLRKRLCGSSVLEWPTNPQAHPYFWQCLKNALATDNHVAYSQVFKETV
The experiment in a line: TLR7 cellular reporter assay (HEK293, NFκB-luc). The settings on record: HEK293 transiently transfected with TLR7 and NFκB-luc; 6 hours incubation; lowest effective concentration. Background: A reporter such as luciferase makes a cellular process visible.

Test [1] has as its system interferon-stimulated responsive elements (ISRE). The experiment in a line: Activation of ISRE promoter elements by conditioned media from PBMC (HEK-ISREluc). The following applies: Homo sapiens, read-out: HEK-ISRE luc (LEC). On the procedure: The potential of compounds to induce IFN-I was also evaluated by measuring the activation of interferon-stimulated responsive elements (ISRE) by conditioned media from PBMC. The ISRE element of sequence […] is highly responsive to the STAT1-STAT2-IRF9 transcription factor, activated upon binding of IFN-I to their receptor IFNAR (Clontech, PT3372-5W). The plasmid pISRE-Luc from Clontech (ref. 631913) contains 5 copies of this ISRE element, followed by the firefly luciferase ORF. A HEK293 cell line stably transfected with pISRE-Luc (HEK-ISREluc) was established to profile of the conditioned PBMC cell culture media.
Briefly, PBMCs were prepared from buffy coats of at least two donors using a standard Ficoll centrifugation protocol. Isolated PBMCs were resuspended in RPMI medium supplemented with 10% human AB serum and 2×10^5 cells/well were dispensed into 384-well plates containing compounds (70 μL total volume). After overnight incubation, 10 μL of supernatant was transferred to 384-well plates containing 5×10^3 HEK-ISREluc cells/well in 30 μL (plated the day before). Following 24 hours of incubation, activation of the ISRE elements was measured by assaying luciferase activity using 40 μL/well Steady Lite Plus substrate (Perkin Elmer) and measured with ViewLux ultraHTS microplate imager (Perkin Elmer). The stimulating activity of each compound on the HEK-ISREluc cells was reported as LEC value, defined as the compound concentration applied to the PBMCs resulting in a luciferase activity at least two fold above the standard deviation of the assay. The LEC in turn indicates the degree of ISRE activation on transfer of a defined amount of PBMC culture medium. Recombinant interferon α-2a (Roferon-A) was used as a standard control compound.

For a further test, the target named is T2, human TLR8 (Homo sapiens, UniProt Q9NR97).
T2 construct: expressed in transfected cells; host or cells: HEK293
T2 sequence (Q9NR97 27-1041): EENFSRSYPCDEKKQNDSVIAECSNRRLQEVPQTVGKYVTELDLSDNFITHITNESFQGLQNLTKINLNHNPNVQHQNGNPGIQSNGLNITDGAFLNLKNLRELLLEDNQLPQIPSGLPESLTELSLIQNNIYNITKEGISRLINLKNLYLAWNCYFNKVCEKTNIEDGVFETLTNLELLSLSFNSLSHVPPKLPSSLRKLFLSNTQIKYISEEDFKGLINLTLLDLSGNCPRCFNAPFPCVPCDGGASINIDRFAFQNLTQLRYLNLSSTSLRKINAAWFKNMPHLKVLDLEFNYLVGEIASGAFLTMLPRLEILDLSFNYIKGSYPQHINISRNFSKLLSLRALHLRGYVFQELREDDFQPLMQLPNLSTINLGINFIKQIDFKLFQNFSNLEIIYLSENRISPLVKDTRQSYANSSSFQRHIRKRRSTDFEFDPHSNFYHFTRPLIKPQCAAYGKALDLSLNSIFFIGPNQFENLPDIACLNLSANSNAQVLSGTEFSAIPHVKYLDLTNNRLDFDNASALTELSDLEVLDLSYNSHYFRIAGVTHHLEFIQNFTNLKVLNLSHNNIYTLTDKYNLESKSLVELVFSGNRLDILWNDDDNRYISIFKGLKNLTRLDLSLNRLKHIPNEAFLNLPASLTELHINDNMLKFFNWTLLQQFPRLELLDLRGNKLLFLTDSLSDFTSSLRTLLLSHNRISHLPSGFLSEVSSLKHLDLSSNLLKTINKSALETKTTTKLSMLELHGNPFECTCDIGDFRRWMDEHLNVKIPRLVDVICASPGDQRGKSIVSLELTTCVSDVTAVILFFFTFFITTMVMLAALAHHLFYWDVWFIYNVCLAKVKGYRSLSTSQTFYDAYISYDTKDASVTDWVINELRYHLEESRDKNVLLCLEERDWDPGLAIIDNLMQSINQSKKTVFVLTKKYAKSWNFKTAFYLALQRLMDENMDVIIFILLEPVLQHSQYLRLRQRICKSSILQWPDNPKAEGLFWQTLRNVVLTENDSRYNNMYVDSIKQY
The experiment in a line: TLR8 cellular reporter assay (HEK293, NFκB-luc). The following applies: HEK293 transiently transfected with TLR8 and NFκB-luc; 6 hours incubation; lowest effective concentration.

Setting [2] is: PBMC conditioned medium transferred to HEK-ISREluc cells, 24 hours, lowest effective concentration.

Molecules are shown by their SMILES. Like-named read-outs stand apart in the source and are kept apart here.

Consider twelve compounds from patent US9416114B2, “1,2,4-triazine derivatives for the treatment of viral infections” (CENTRE NATIONAL DE LA RECHERCHE SCIENTIFIQUE (CNRS), priority 2012, dated 2016).

Experimental for human TLR7: (§1) The ability of compounds to activate human TLR7 and/or TLR8 was assessed in a cellular reporter assay using HEK293 cells transiently transfected with a TLR7 or TLR8 expression vector and NFκB-luc reporter construct.
(§2) Briefly, HEK293 cells were grown in culture medium (DMEM supplemented with 10% FCS and 2 mM Glutamine). For transfection of cells in 10 cm dishes, cells were detached with Trypsin-EDTA, transfected with a mix of CMV-TLR7 or TLR8 plasmid (750 ng), NFκB-luc plasmid (375 ng) and a transfection reagent and incubated overnight at 37° C. in a humidified 5% CO2 atmosphere. […] Thirty microliters of cells were then dispensed into each well in 384-well plates, where 10 μL of compound in 4% DMSO was already present. Following 6 hours incubation at 37° C., 5% CO2, the luciferase activity was determined by adding 15 μL of Steady Lite Plus substrate (Perkin Elmer) to each well and readout performed on a ViewLux ultraHTS microplate imager (Perkin Elmer). Dose response curves were generated from measurements performed in quadruplicates.
Experimental for human TLR8: as §1, §2

Turning to `CCC[C@@H](CCO)Nc1nc(N)nnc1OCc1nccc(OC)c1OC` [Compound 8], on human TLR7, the “Human TLR 7 (LEC)” value came to 0.24 µM. Also, the minimal effective concentration in test [1] (setting [2]) was determined as 0.014 µM. Also, on human TLR8, the “Human TLR 8 (LEC)” value is 0.56 µM.
Turning to `CCCC[C@@H](CCO)Nc1nc(N)nnc1OC` [Compound 12], the “Human TLR 7 (LEC)” value at human TLR7 amounted to 7.8 µM. Also, in test [1] (setting [2]), the minimal effective concentration stood at 2.72 µM.
For the compound `CCCCNc1nc(N)nnc1OCc1ccccc1` [Compound 15], the “Human TLR 7 (LEC)” value at human TLR7 worked out at 2.94 µM. Besides, the minimal effective concentration in test [1] (setting [2]) was 1.85 µM. Moreover, the “Human TLR 8 (LEC)” value on human TLR8 came out at 1.93 µM.
The corresponding values for `CCCCNc1nc(N)nnc1OCCCc1ccc(OC)cc1` [Compound 16] are 0.38 µM, 0.14 µM and 0.81 µM.
With `CCCCNc1nc(N)nnc1OC` [Compound 17], the “Human TLR 7 (LEC)” value on human TLR7 came out at 17.49 µM. For the same compound, the minimal effective concentration in test [1] (setting [2]) was 1.02 µM.
The like results for `CCCCNc1nc(N)nnc1OC(C)C` [Compound 18] were, in that order, 8.27 µM and 0.53 µM.
For `CCCCNc1nc(N)nnc1OCc1ccccc1OC` [Compound 19], the minimal effective concentration in test [1] (setting [2]) came out at 0.43 µM. At human TLR8, the “Human TLR 8 (LEC)” value stood at 0.64 µM.
Turning to `CCCCNc1nc(N)nnc1OCc1ccccc1F` [Compound 20], the “Human TLR 7 (LEC)” value on human TLR7 is 0.75 µM. In addition, the minimal effective concentration in test [1] (PBMC, 24 h) amounted to 0.54 µM.
The like results for `CCCCNc1nc(N)nnc1OCc1cccnc1` [Compound 21] were, in that order, 1.71 µM and 0.14 µM.
In the case of `CCCCNc1nc(N)nnc1OCCOC` [Compound 22], the “Human TLR 7 (LEC)” value at human TLR7 is 4.75 µM. Also, the minimal effective concentration in test [1] (PBMC, 24 h) was 0.41 µM. For the same compound, the “Human TLR 8 (LEC)” value on human TLR8 stood at 1.0 µM.
As for `CCCCNc1nc(N)nnc1OCc1ccccn1` [Compound 23], on human TLR7, the “Human TLR 7 (LEC)” value was 0.17 µM. The minimal effective concentration in test [1] (setting [2]) came to 0.14 µM.
On to `CCCCNc1nc(N)nnc1OCCCN(C)C` [Compound 24], for which the “Human TLR 7 (LEC)” value at human TLR7 is more than 25 µM. The minimal effective concentration in test [1] (PBMC, 24 h) came to 0.17 µM. The “Human TLR 8 (LEC)” value on human TLR8 is 0.1 µM.
